Reference: patent US9914698B2, “Stearoyl amino acid salt and preparation method and application thereof” (Shanghai Jiaotong University School of Medicine, priority 2014, dated 2018)
Read-outs that look alike come from different tables or passages of the source. Marks after values point to notes of the source that are not given here.

Experiments:
[1] = Stability assessment (influencing factors, acceleration and long-term tests, Chinese Pharmacopoeia 2010); type: physicochemical; conditions: high temperature, high humidity, strong light
Method: Considering that prototype drug stearoyl amino acid tend to absorb moisture, cake and become yellowish during long-term storage, the stearoyl amino acid is now converted into a form of active salt thereof. And the stability of NsTyr-2K and NsTyr-2Na was tested as required for bulk pharmaceutical chemicals according to the People's Republic of China Pharmacopoeia 2010.

Acute toxicity test = conditions: mouse, in vivo; oral, Kunming mice
Excerpt: After oral administration of NsTyr-2K, the mice were weighed. […] However, their weight followed up rapidly as food intake recovered.
After 15-day administration of NsTyr-2K, the mouse organs (brain, heart, lung, liver and kidney) were studied to see if there was any change.
This means that mouse brain tissues had not been severely damaged under such dose, and that NsTyr-2K had high safety. Even so, it is necessary to conduct further long-term safety assessment of any possible side effect of NsTyr-2K on liver and hear in the following medicinal research and to precisely determine the amount of administration required.

obese mouse model [2] = test: Collection and observation of fat and liver tissues of obese mice; type: in vivo, C57BL/6 mice; conditions: for perirenal fat percentage quality: HFD I blank 1.63 ± 0.10; for Epididymal fat percentage quality: HFD I blank 2.99 ± 0.08; for Liver percentage quality: HFD I blank 3.51 ± 0.07
Excerpt: 2. Method: After administration test in Embodiment 8, the mice were denied food overnight. Their abdominal cavity was opened to observe abdominal fat content in each group of the mice. Epididymal fat, perirenal fat and liver were separated and weighed.

[3] = system: gerbil model with global ischemia reperfusion injury; test: Morris water maze test (cerebral ischemia); type: in vivo
Excerpt: (§1) Taking N-stearoyl amino acid potassium NsTyr-2K as an example, a gerbil model with global ischemia reperfusion injury was used to assess the protective role of NsTyr-2K against neurobehavioral disorder caused by cerebral ischemia-reperfusion injury by examining the changing behavioral indexes such as spatial, learning and cognitive functions in the perspective of overall animals during passive dark avoidance test and Morris water maze test.
Up to day 4, for normal animals their latency fell to 29.8+/−12.55 s, and their swimming distance to 3,216.5+/−1,026.46 cm. From day 1 to day 2, there was no evident difference in the average latency before reaching the platform and the swimming distance prior to going onto the platform between the ischemia group of gerbils and any of the other groups. As training sessions increased, the latency and swimming distance of each group of gerbils before reaching the platform was shortened. The gap between the ischemia group and any of the other groups began to widen and reached the record on day 4.

obese mouse model [4] = test: H&E staining of fat and liver tissue of obese mice; type: in vivo, C57BL/6 mice
Method: 2. Method: Epididymal fat and liver were fixed in 10% neutral formaldehyde solution for 48 h. After paraffin embedding they were made into […] of slices, and stained with hematoxylin-eosin (H&E staining). Light microscope was used to observe the size of fat cells, the structure of liver cells and adipose accumulation.

obese mouse model [5] = test: Administration test in obese mouse model (weight, food intake); type: in vivo, C57BL/6 mice; conditions: for obese mouse weight: four weeks
Method: 2. Method: 60 C57BL/6 mice (aged 3 weeks, male, with a weight of 8.3 g each) were adaptively fed with 12% kcal normal diet for one week, and randomly divided into 6 groups, each consisting of 10 mice. One group (ND) continued to be fed with normal diet, the rest five groups (HFD I˜V) were fed with 45% kcal high-fat diet.
In the whole test process the mice kept raised in the following environment: temperature: 23±3° C.; humidity: 50±5%; bright and dim alternating cycle: 12 h/12 h; freely available to diet and drinking water in the whole process.
2. Method: ND and HFD I were respectively taken as normal and high-fat diet blank control groups, and were treated with 0.5% sodium carboxymethyl cellulose solution (5 ml/kg/day); HFD II˜IV were taken as groups of recipients, and were treated with NST-2K (20, 60, 100 mg/kg/day); HFD V was taken as a positive control group, and treated with Orlistat (100 mg/kg/day). All the above drugs dissolved in aqueous solution of 0.5% sodium carboxymethyl cellulose and were administered. The administration remained four weeks. In each week average weight and food intake were kept in record until the phase of administration ended.

[6] = Absorption kinetics after intragastric administration; type: in vivo; conditions: SD rats, oral 200 mg/kg
Method: Ten SD rats weighing 150-180 g were randomly divided into two groups, each comprising five, with males and females combined. After intragastric administration of 200 mg/kg of saline solution containing NsTyr and NsTyr-2K, the average blood concentration-time curve thereof was respectively shown in FIG. 2.

[7] = system: gerbil model with global ischemia reperfusion injury; test: Dark avoidance test; type: in vivo; conditions: compared with the ischemia group; NsTyr-2K 15, 30, 60 mg/kg; nimotop positive control
Excerpt: as §1
Dark avoidance test was used to evaluate the effects of NsTyr-2K influence on animal learning and memory abilities.

[8] = Apparent lipid-water distribution coefficient; type: physicochemical
Method: The shake-flask method was used to test the equilibrium solubility of NsTyr, NsTyr-2K, NsTyr-2Na in water at 37° C. […] The apparent lipid-water distribution coefficient log p of NsTyr-2K, NsTyr-2Na was respectively 1.512 and 1.477. Under different pHs, see Table 1 for the equilibrium solubility test data of NsTyr-2K, NsTyr-2Na; and see Table 2 for the apparent lipid-water distribution coefficient of NsTyr-2K and NsTyr-2Na.

[9] = both sexes, Sprague-Dawley (SD), rat, blood

CCCCCCCCCCCCCCCCCC(=O)N[C@@H](Cc1ccc(O)cc1)C(=O)[O-].[K+] [NsTyr-2K, N-stearoyl tyrosine potassium salt]
stability [1]: stable properties | LD50 at 15 days (Acute toxicity test): > 2000 mg/kg | perirenal fat percentage quality (obese mouse model [2]; 20 mg/kg/day): 1.51 ± 0.07 g/100 g weight | Epididymal fat percentage quality (obese mouse model [2]; 20 mg/kg/day): 2.94 ± 0.11 g/100 g weight | Liver percentage quality (obese mouse model [2]; 20 mg/kg/day): 3.47 ± 0.05 g/100 g weight | perirenal fat percentage quality (obese mouse model [2]; 60 mg/kg/day): 1.37 ± 0.04 g/100 g weight | Epididymal fat percentage quality (obese mouse model [2]; 60 mg/kg/day): 2.72 ± 0.07 g/100 g weight | Liver percentage quality (obese mouse model [2]; 60 mg/kg/day): 3.41 ± 0.06***^ g/100 g weight | perirenal fat percentage quality (obese mouse model [2]; 100 mg/kg/day): 1.26 ± 0.05 g/100 g weight | Epididymal fat percentage quality (obese mouse model [2]; 100 mg/kg/day): 2.64 ± 0.08 g/100 g weight | Liver percentage quality (obese mouse model [2]; 100 mg/kg/day): 3.46 ± 0.07***^ g/100 g weight | abdominal fat pad (obese mouse model [2]; increasing doses 20, 60, 100 mg/kg/day, compared with HFD I): the abdominal fat pad showed a shrinking trend | abdominal fat quality, compared with Orlistat (obese mouse model [2]; same dose (100 mg/kg)): better effects in reducing abdominal fat quality than Orlistat | period before finding the underwater platform and swimming distance ([3]; 15 mg/kg, compared with the model group): no obvious difference | time percentage and swimming distance percentage in the first quadrant (probe test) ([3]; day 5, platform removed, against ischemia group, NsTyr-2K 30 and 60 mg/kg, nimotop control): statistical difference | period before finding the underwater platform and swimming distance ([3]; days 3 and 4, compared with the ischemia group, NsTyr-2K 30 and 60 mg/kg, nimotop positive control): a shortened period before finding the underwater platform and a shortened swimming distance | size of epididymal fat cells (obese mouse model [4]; HFD III, HFD IV (NST-2K 60, 100 mg/kg/day) and HFD V (Orlistat 100 mg/kg/day) vs HFD I): evidently smaller fat cells than HFD I | fat accumulation in liver tissues (obese mouse model [4]; as the administration dose increased, vs HFD I): the accumulation began to ease | size of epididymal fat cells (obese mouse model [4]; low-dose (20 mg/kg/day)): could not significantly shrink fat cells | obese mouse weight (obese mouse model [5]; 100 mg/kg/day): can reduce obese mouse weight | appetite (average daily food intake) (obese mouse model [5]; 4-week administration, high-fat diet groups): neither NST-2K nor Orlistat suppressed appetite | obese mouse weight (obese mouse model [5]; 20, 60 mg/kg/day): can inhibit weight gain in obese mice | AUC multiplied, compared with NsTyr [6]: 30 times | half-life period compared with NsTyr [6]: nearly doubled | peak concentration Cmax multiplied, compared with NsTyr [6]: ~20 times | AUC(0-inf) [6, 9]: 3690 ng·h/mL | AUC(0-t) [6, 9]: 3490 ng·h/mL | Cmax [6, 9]: 2400 ng/mL | MRT last [6, 9]: 2.19 h | Tmax [6, 9]: 0.6 h | half-life [6, 9]: 2.9 h | error counts within 5 min [7]: much fewer error counts within 5 min | latency [7]: much prolonged latency | logP [8]: 1.51 | Apparent lipid-water distribution coefficient Ko/w ([8]; buffer pH 2.0): 76.020 | logP ([8]; buffer pH 2.0, read-out: Apparent lipid-water distribution coefficient LogP): 1.88 | Apparent lipid-water distribution coefficient Ko/w ([8]; buffer pH 3.0): 30.571 | logP ([8]; buffer pH 3.0, read-out: Apparent lipid-water distribution coefficient LogP): 1.49 | Apparent lipid-water distribution coefficient Ko/w ([8]; buffer pH 4.0): 16.020 | logP ([8]; buffer pH 4.0, read-out: Apparent lipid-water distribution coefficient LogP): 1.21 | Apparent lipid-water distribution coefficient Ko/w ([8]; buffer pH 5.0): 21.934 | logP ([8]; buffer pH 5.0, read-out: Apparent lipid-water distribution coefficient LogP): 1.34 | Apparent lipid-water distribution coefficient Ko/w ([8]; buffer pH 6.0): 28.935 | logP ([8]; buffer pH 6.0, read-out: Apparent lipid-water distribution coefficient LogP): 1.46 | Apparent lipid-water distribution coefficient Ko/w ([8]; buffer pH 7.0): 37.855 | logP ([8]; buffer pH 7.0, read-out: Apparent lipid-water distribution coefficient LogP): 1.58 | Apparent lipid-water distribution coefficient Ko/w ([8]; buffer pH 7.4): 16.674 | logP ([8]; buffer pH 7.4, read-out: Apparent lipid-water distribution coefficient LogP): 1.22 | Apparent lipid-water distribution coefficient Ko/w ([8]; buffer pH 8.0): 13.797 | logP ([8]; buffer pH 8.0, read-out: Apparent lipid-water distribution coefficient LogP): 1.14 | Apparent lipid-water distribution coefficient Ko/w ([8]; buffer pH 9.0): 13.140 | logP ([8]; buffer pH 9.0, read-out: Apparent lipid-water distribution coefficient LogP): 1.12
